The values below come from ChEMBL document CHEMBL5038576 (J Med Chem, 2021).

The target of experiment [1] is T1, Adenosine receptor A3 (Homo sapiens) (UniProt P0DMS8).
T1 sequence (whole entry): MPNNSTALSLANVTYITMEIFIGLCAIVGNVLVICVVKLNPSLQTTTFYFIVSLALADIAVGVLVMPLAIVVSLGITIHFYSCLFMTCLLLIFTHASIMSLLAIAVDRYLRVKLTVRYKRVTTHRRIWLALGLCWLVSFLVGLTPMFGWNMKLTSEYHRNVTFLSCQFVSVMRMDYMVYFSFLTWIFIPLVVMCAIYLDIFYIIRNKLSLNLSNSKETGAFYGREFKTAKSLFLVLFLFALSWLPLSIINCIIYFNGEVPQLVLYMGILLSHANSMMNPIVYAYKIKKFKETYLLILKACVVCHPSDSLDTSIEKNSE
Briefly: Displacement of [3H]PSB-11 from human A3 receptor expressed in CHO cell membranes at 10 uM measured after 3 hrs by radioligand binding assay relative to control. The settings on record: Membrane.

In experiment [2] the target is T2, Adenosine receptor A2b (Homo sapiens) (UniProt P29275).
T2 sequence (whole entry): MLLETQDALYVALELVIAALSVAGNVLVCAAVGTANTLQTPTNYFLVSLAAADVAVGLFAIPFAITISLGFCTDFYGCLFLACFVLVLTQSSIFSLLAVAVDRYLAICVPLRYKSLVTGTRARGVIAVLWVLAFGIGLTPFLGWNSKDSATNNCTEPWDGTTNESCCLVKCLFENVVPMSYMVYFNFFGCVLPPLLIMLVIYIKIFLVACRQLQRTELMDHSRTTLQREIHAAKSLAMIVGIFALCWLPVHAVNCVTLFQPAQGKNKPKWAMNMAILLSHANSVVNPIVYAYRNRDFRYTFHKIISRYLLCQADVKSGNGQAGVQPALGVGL
The experiment in a line: Displacement of [3H]PSB-603 from human A2B receptor expressed in CHO cell membranes at 1 uM measured after 3 hrs by radioligand binding assay relative to control. To be noted: Membrane. Background: Loss of bound radioactivity is the signal in a displacement assay; it reports binding, not function.

Experiment [3] deals with T3, Adenosine receptor A1 (Homo sapiens) (UniProt P30542).
T3 sequence (whole entry): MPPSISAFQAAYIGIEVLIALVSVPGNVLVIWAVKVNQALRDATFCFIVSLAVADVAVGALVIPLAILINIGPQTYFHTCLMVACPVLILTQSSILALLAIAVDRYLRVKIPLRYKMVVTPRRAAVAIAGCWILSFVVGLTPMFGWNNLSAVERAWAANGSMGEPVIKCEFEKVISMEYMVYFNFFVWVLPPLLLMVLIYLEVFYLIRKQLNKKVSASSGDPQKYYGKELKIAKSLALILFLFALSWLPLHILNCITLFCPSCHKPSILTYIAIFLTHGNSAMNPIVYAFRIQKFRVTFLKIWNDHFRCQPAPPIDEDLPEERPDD
Briefly: Displacement of [3H]DPCPX from human A1 receptor expressed in CHO cell membranes at 10 uM measured after 3 hrs by radioligand binding assay relative to control. To be noted: Membrane.

In experiment [4] the target is T4, Adenosine receptor A2a (Homo sapiens, UniProt P29274). Briefly: Displacement of [3H]ZM241385 from human A2A receptor expressed in HEK293 cell membranes at 10 uM measured after 3 hrs by radioligand binding assay relative to control. The settings on record: Membrane.
T4 sequence (P29274 whole entry): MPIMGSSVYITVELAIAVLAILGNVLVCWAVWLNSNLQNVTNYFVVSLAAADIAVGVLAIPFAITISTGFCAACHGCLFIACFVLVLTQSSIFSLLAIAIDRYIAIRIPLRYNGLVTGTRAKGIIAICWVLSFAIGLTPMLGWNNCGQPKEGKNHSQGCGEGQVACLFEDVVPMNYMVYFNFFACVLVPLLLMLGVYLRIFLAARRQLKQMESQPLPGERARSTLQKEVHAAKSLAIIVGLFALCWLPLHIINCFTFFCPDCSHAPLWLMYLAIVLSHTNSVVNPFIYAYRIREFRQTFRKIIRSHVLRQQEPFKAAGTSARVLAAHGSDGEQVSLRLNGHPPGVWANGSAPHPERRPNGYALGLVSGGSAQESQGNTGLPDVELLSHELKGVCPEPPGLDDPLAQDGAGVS
For the next experiment, the target named is T5, Adenosine receptor A1 (Homo sapiens, UniProt P30542).
T5 sequence (P30542 whole entry): T3 sequence (whole entry)

Experiment [5] has as its target T4, Adenosine receptor A2a.
Description: Displacement of [3H]ZM241385 from human A2A receptor expressed in HEK293 cell membranes measured after 3 hrs by radioligand binding assay
The target of experiment [6] is T4, Adenosine receptor A2a. The source holds these as a separate data set.
The next experiment addresses T6, Adenosine receptor A3 (Homo sapiens, UniProt P0DMS8).
T6 sequence (P0DMS8 whole entry): T1 sequence (whole entry)

The target in the next experiment is T7, Adenosine receptor A2b (Homo sapiens, UniProt P29275).
T7 sequence (P29275 whole entry): T2 sequence (whole entry)

Turning to `Nc1cc(-c2ccccc2)cc(SCc2ncc[nH]2)n1`, the Activity in experiment [1] is 46%; in experiment [2], -12%; in experiment [3], 12%; at Adenosine receptor A2a [4] it was -17%.

The Ki is a measure of affinity in units of concentration, obtained from inhibition or displacement. A high value points to lower affinity. In the case of `N#Cc1c(-c2ccccc2)cc(N)nc1SCc1ncc[nH]1`, the Activity in [2] was determined as 37%. On Adenosine receptor A1, this compound showed a Ki of 112 nM.

By EC50 is commonly meant the concentration giving half of the maximal effect. Higher therefore signals weaker potency. Consider `N#Cc1c(SCc2ncc[nH]2)nc(N)nc1-c1ccccc1`, for which the Activity in experiment [2] (filed as partial agonist) came to 50%. Also, the Ki at Adenosine receptor A2a [5] is 10 nM; on Adenosine receptor A1 it was 69.2 nM. For the same compound, at Adenosine receptor A2a [6], it took 44.7 nM to reach a half-maximal effect (EC50).

Consider `Nc1nc(SCc2ncc[nH]2)nc(-c2ccccc2)n1`, for which the Activity in experiment [2] was 2%. Moreover, the Ki at Adenosine receptor A2a [5] is 562 nM; at Adenosine receptor A1, 288 nM. The compound also gave an EC50 at Adenosine receptor A2a [6] of 813 nM.

With `N#Cc1c(N)nc(SCc2ncc[nH]2)nc1-c1ccccc1`, the Ki is 347 nM at Adenosine receptor A3 and 85.1 nM at Adenosine receptor A1. The Activity in experiment [2] (filed as partial agonist) turned out to be 51%.

Turning to `N#Cc1c(-c2ccccc2)cc(SCc2ncc[nH]2)nc1N`, the Ki on Adenosine receptor A1 was 417 nM; at Adenosine receptor A2b, 372 nM.
